Laboratory results: US20110212948A1 (priority 2008, published 2011)
Where two headings read alike, the source gives them in different places.

Legend:
[1] = Multiple dose study: peak and trough plasma meloxicam concentrations; type: in vivo, foals
Experimental: Blood for ‘trough’ serum levels was collected from foals immediately prior to administration of morning treatment. ‘Peak’ plasma concentrations were determined from blood samples collected 2 hours following administration of the morning treatment (as per the schedule above).

[2] = Multiple dose study: veterinary examination, haematology and serum biochemistry; settings: 0.6 mg/kg every 12 hours for 14 days; except serum cholesterol
Experimental: Six foals were available for inclusion in this part of the study and were randomly assigned to treatment (four foals) or control groups (two foals). […] To ensure foals were recruited into the study within 4 weeks of birth, the study was performed twice, with 2 treated and one control foal in each replicate.
Foals were examined twice daily for the duration of the study. Staff responsible for veterinary examination of foals were blinded to treatment.
Peripheral blood samples were submitted for routine haematology and serum biochemistry at a commercial laboratory (Idexx Laboratories, Rydalmere, NSW) twice weekly (treatment days 0, 2, 6, 9, 13 and 16). Gastroscopy and urine analysis (Dip Stik and urine enzyme analysis1) were performed weekly on all foals.

[3] = adult horses, cited from earlier work
[4] = in vivo, 0.6 mg/kg
[5] = Faecal occult blood testing with guaiac-based slides (Hemoccult Sensa); type: in vivo; settings: treated and control foals, all occasions
Experimental: Faecal occult blood testing using guaiac-based slides (Hemoccult Sensa, Beckman Coulter Australia Pty Ltd, Gladesville, NSW) was evaluated for the detection of gastrointestinal bleeding in treated and control foals. This technique has been reported as a sensitive method for identifying gastric or right dorsal colon ulceration in adult horses (Pellegrini 2005). Faecal samples were collected on DSP days from all foals and processed according to the manufacturer's instructions. Tests were negative for blood (haemoglobin) on all occasions.

[6] = adult horses, cited from earlier work; remark: listed apart in the source
[7] = current study, foals, single oral dose 0.6 mg/kg, mean ± SD
[8] = Multiple dose study: gastroscopy; type: in vivo, foals
[9] = Bioequivalence study (CML039) Reference
[10] = Bioequivalence study (CML039) Test

## Cc1cnc(NC(=O)C2=C(O)c3ccccc3S(=O)(=O)N2C)s1 [meloxicam]
[1]; foals, 0.6 mg/kg by mouth every 12 hours for 14 days
  Accumulation of drug in serum: did not appear to accumulate
[1]; horse, in vivo, foals less than 6 weeks, 0.6 mg/kg by mouth every 12 hours
  concentration at 14 days: 100 to 1000 ng/mL
[1]; horse, in vivo, foals, 0.6 mg/kg by mouth every 12 hours for 14 days, 2 h after morning dose, read-out: Peak serum concentrations with repeated dosing
  concentration at 2 h: 500 to 1200 ng/mL
[2]
  Haematology and serum biochemistry, treated vs control foals: no significant differences
[3]; [9]
  Area under curve: 10752.4 ng/mL/h
  Cmax (oral admin): 777.5 ng/mL
  Tmax (oral admin): 3.8 h
[3]; [10]
  Area under curve: 11281.0 ng/mL/h
  Tmax (oral admin): 2.6 h
[4]
  Adverse effects after a single oral dose (physical examination): no adverse effects
[4]; po
  Albumin, mean post-Tx (±sem): 29 (±1) g/L
  Creatinine, median post-Tx: 0.09 mmol/L
  Glucose, mean post-Tx (±sem): 8.8 (±0.6) mmol/L
  Haemoglobin, mean post-Tx (±sem): 123 (±4) g/L
  PCV, mean post-Tx (±sem): 35 (±1) %
  Potassium, median post-Tx: 4.0 mmol/L
  Sodium, mean post-Tx (±sem): 138 (±1) mmol/L
  Urea, mean post-Tx (±sem): 2.1 (±0.1) mmol/L
[5]
  Faecal occult blood (haemoglobin): negative
[6]; Lees et al 1991 (IV administration)
  Cmax: 9230 ng/mL
[6]; Lees et al 1991
  Area under curve: 14530 ng/mL/h
[6]; Little et al 2007 (IV administration)
  Cmax: 9780 ng/mL
[6]; Little et al 2007
  Area under curve: 33440 ng/mL/h
[6]; Toutain et al 2004b
  Cmax (oral admin): 2580 ng/mL
[6]; fasted, Toutain et al 2004b
  Bioavailability (fasted): 85.3
[6]; fed, Toutain et al 2004b
  Bioavailability (fed): 95.9
[7]
  Area under curve: 3870.3 ng/mL/h
[8]; Day 7 of multiple dose study
  Gastroscopy finding, margo plicatus of a treated foal (FIG. 18): normal margo plicatus
[8]; Day 7 of multiple dose study, erythemia already present before single dose
  Gastroscopy finding, treated foal F8 (FIG. 21): superficial erosions of squamous mucosa
[8]; Day 14 of multiple dose study
  Gastroscopy finding, margo plicatus of same treated foal (FIG. 19): small, well circumscribed and very superficial ulcer
[8]; all foals, 0.6 mg/kg every 12 hours for 14 days
  Gastric mucosal damage on gastroscopic examination: failed to identify evidence of significant gastric mucosal damage
[8]; following 14 days of treatment
  Gastroscopy finding, treated foal F8 (FIG. 22): no evidence of ongoing mucosal ulceration
